Read-outs that look alike come from different tables or passages of the source.

The values that follow come from US20060166934A1, “Composition comprising phytosphingosine derivatives for apoptosis induction” (Tae-Yoon Kim, priority 2002, published 2006).

The nature of data set [1]: MTT assay, cytotoxicity in human skin cancer cell line. It is filed as cell-based. As to conditions: human, Cell viability. Here is the method:
(§1) Firstly, the cytotoxicity is measured by the MTT assay. Phytosphingosine (PS), phytosphingosine-HCl (PS-HCl), C6-phytosphingosine (C6-PS), CLA-phytosphingosine (CLA-PS), tetraacetyl phytosphingosine (TAPS), and N-acetyl phytosphingosine (NAPS) are dissolved into DMSO to have the final concentration of 1-100 μM.
(§2) In order to study the effects of the compositions of the present invention on the cytotoxicity in the human keratinocyte cell line HaCaT cells, the cell viability is analyzed by the MTT (3-[4,5-dimethylthiazol-2-yl]-2,5-diphenyltetrazolium bromide) assay. HaCaT cells are supplied by Professor N. Fuseng of German Cancer Research in Germany. HaCaT cells are seeded in a density of 1×10^6 cells in a […] and cultured in DMEM (Dulbecco's Modified Eagle Medium) containing 10% fetal bovine serum (FBS, GIBCO), 100 units/ml penicillin, and 100 μg/ml streptomycin for 48 hours. They are treated with trypsin and 1-2×10^4 cells per well are seeded again in a 96-well plate by using a serum-free culture medium, about 3 hours after which they are cultured by treatment with phytosphingosine derivatives. After they are cultured for 24 hours, the MTT reagent is added at a concentration of 2 mg/ml, cultured for 4 hours, suspended in DMSO after removing the culture medium completely in order to measure O.D. at 540 nm. C2-ceramide is used for comparison.
(§3) In order to study the effects of the compositions of the present invention on the cytotoxicity in A431 cells, human skin cancer cell line, the MTT assay is used. The method of cell culture and MTT assay are the same as those in the above method. C2-ceramide is used for comparison.
In general terms: Tetrazolium assays rely on reduction of a dye to a coloured formazan, in cell work by metabolically active cells.

The subject of data set [2] is A431 cells, human skin cancer cell line. Described as above. It is filed as cell-based. As to conditions: human, 24 h. As for the experimental part: as §1, §2, §3
Data set [3] is described as follows: MTT assay, cytotoxicity in HUVEC. As to conditions: human. It is filed as cell-based, human. As for the experimental part: as §1, §2
(§4) The MTT assay is used for the above purpose. Primary human umbilical vein endothelial cells are cultured from the human umbilical vein. The method of cell culture and the MTT assay are the same as those in the above. C2-ceramide is used for comparison.

For data set [4], the system named is human umbilical vein endothelial cells (HUVEC). Description: MTT assay, cytotoxicity in HUVEC. As to conditions: human, 24 h, 30 μM. It is filed as cell-based. Here is the method: as §1, §2, §4
The subject of data set [5] is HaCaT cells. Description: MTT assay, combined treatment with UVB irradiation. Also noted: Cell viability: unit not given here. The note with it: 1 μM, no UVB, 24 hours, HaCaT. Type of data set: cell-based, human. As for the experimental part: (§5) In order to study the synergistic effect in the cytotoxicity by the cotreatment with administration of the compositions of the present invention and with UVB irradiation, the cell viability is analyzed by MTT assay method in HaCaT cells. On a 100-mm dish, 1×10^6 HaCaT cells are seeded and cultured in DMEM containing 10% fetal bovine serum, 100 units/ml penicillin, and 100 μg/ml streptomycin for 48 hours. They are treated with trypsin, and 1-2×10^4 cells per well are seeded on a 96-well plate again by using a serum-free medium, which is removed after about 3 hours. HaCaT cells are washed with PBS three times, and 3.5 ml of PBS per plate is added. It is then irradiated with 200 J/m^2 of UVB. After irradiation, the medium is replaced with a DMEM medium. Then it is treated with the phytosphingosine derivatives of the present invention, and cultured for 24 hours. After 2 mg/ml of the MTT reagent is added, it is cultured for 4 hours. The medium is removed completely, the cells are suspended in DMSO, and O.D. is measured at 540 nm.

Data set [6] in a line: MTT assay, combined treatment with UVB irradiation. It is filed as cell-based, human. The note with it: human, HaCaT cells, HaCaT, read-out: Cell viability. Details: Cell viability: unit not given here. As for the experimental part: as §5
A short description of data set [7]: MTT assay, cytotoxicity in immune cells separated from spleen of mice. Type of data set: cell-based. The note with it: BDF, mouse. Here is the method:
The effect of the composition of the present invention on the cytotoxicity in immune cells (T cells, B cells, macrophages, monocytes, etc.) was examined. The spleen was removed from normal mice (BDF) and single cells were obtained from the spleen by mechanical aggregation method. And mononuclear cells containing T cells, B cells, macrophages and monocytes were isolated from single cells by density gradient centrifugation method using Ficoll Hypaque. Briefly, single cells were treated with PBS and overlayed on Ficoll Hypaque and centrifuged at 1500 rpm for 30 min. After centrifugation, the cells around the boundary of the Ficoll-Hapaque were collected and washed three times with PBS. The isolated cells were cultured for 24 hours in the presence of 1, 10, 50 and 100 μM of NAPS, TAPS, and PS to examine the effect of cytotoxicity, i.e. the degree of proliferation of the cells. C2-ceramide was used as control. The medium used in this experiment was RPMI 1640 suplemented with 10% of FBS and 100 μg/ml of penicillin and streptomycin.

Data set [8] concerns Th1 cells activation. Description: Mixed leukocyte reaction (MLR), Th1 cells activation by TNBSO3, MTT assay. It is filed as cell-based, mice. As to conditions: MLR with TNBSO3-conjugated stimulator cells, FIG. 4. Here is the method: Whether the composition of the present invention has a suppressive effect on the Th1 cells activation which isolate […], IL-12, etc. by reacting with TNBSO3 […] was examined.
The mononuclear cells obtained from spleen of mice as described the above 4 were used for responder cells, and TNBSO3-conjugated cells were used for stimulator cells. The stimulator cells were obtained as follows:
The mononuclear cells were adjusted to be 2×10^7 cells/ml in PBS and the same volume of 20 mM TNBSO3 was added and incubated at 37° C. for 10 min in the dark state. After incubation, the cells wrer washed three times with PBS.
(§6) Each 2×10^5 responder cells and stimulator cells were mixed with each other and cultured for 5 days on the 96-well plate. And RPMI with 10% of serum was used as a medium.
(§7) The above cells were cultured for 24 hours in the presence of 1, 10, 50 and 100 μM of NAPS, TAPS, and PS to examine the proliferation of the cells.
(§8) C2-ceramide was used as control.

Data set [9] concerns Th1 cells activation against allogenic cells (PBMC). Description: Reactions among allogenic cells, Th1 cells activation, MTT assay. Type of data set: cell-based, human. As to conditions: FIG. 5.
From the text: Whether the composition of the present invention has a suppressive effect on the Th1 cells activation by allogenic cells in immune reation was examined.
PBMC obtained from different volunteers as described in the above 5 were used for responder cells and stimulator cells respectively. PBMC for stimulator cells were used after X-ray irradiation (3000 rad) to inhibit the proliferation of stimulator cells.
as §6, §7, §8

Data set [10] can be described thus: MTT assay, cytotoxicity in human keratinocyte cell line. It is filed as cell-based. As to conditions: human, Cell viability. As for the experimental part: as §1, §2
A short description of data set [11]: MTT assay, combined administration with Vit D3 or calcipotriol. Type of data set: cell-based, human. The note with it: human, HaCaT cells, 1 μM singly, 24 hours, HaCaT; read-out: Cell viability. Here is the method: (§9) In order to study the synergistic effect in the cytotoxicity when the compositions of the present invention are administered in combination with Vit D3 or calcipotriol, the cell viability is analyzed by MTT assay method in HaCaT cells human keratinocyte cell line.
(§10) To HaCaT cells, 1 μM of Vit D3 or calcipotriol, or 10 μM each of NAPS and TAPS, is administered singly or in combination with each other, and they are cultured for 24 hours. And the effects of these drugs on the cytotoxicity according to the single or combined administration are observed by MTT assay. C2-ceramide is used for comparison.

The subject of data set [12] is HaCaT cells human keratinocyte cell line. Described as above. The note with it: 1 μM singly, 24 hours. It is filed as cell-based. As for the experimental part:
as §9, §10

As to `CCCCCCCCCCCCCC[C@@H](O)[C@@H](O)[C@@H](N)CO` [PS, phytosphingosine], the viability (usually a per cent measure of how many cells are alive, often set against a control) at 24 h, 3 µM in data set [1] was 85 ± 10.7%; in data set [6] (3 μM + UVB 200 J/m^2, 24 hours), 30 ± 3.3%; in [6] (3 μM, no UVB, 24 hours), 93 ± 5.5%; in data set [10], 93 ± 3%. This compound also came in with a viability at 24 h, 50 µM in [1] of 2 ± 0.2%. The Cell viability in data set [2] (10 µM) was 30 ± 1.9; in data set [5], 133 ± 3.4. The cytotoxicity in data set [2] (50 μM) is recorded as 95-98%; in data set [4], 86-91%. Besides, the viability at 24 h, 3.5 µM in data set [3] came out at 64 ± 4.7%. The compound further registered a viability at 24 h, 7 µM in [3] of 19 ± 1.8%. This compound also had a viability at 24 h, 15 µM in data set [3] of 14 ± 0.9%. In addition, the viability at 24 h, 30 µM in data set [3] amounted to 13 ± 1%; in [10], 51 ± 9.6%. The viability at 24 h, 1 µM in [6] (1 μM + UVB 200 J/m^2, 24 hours) stood at 38 ± 7.9%; in [10] it was 97 ± 11.1%. Besides, the viability at 24 h, 5 µM came out at 28 ± 2.3% in data set [6] (5 μM + UVB 200 J/m^2, 24 hours) and 85 ± 10.6% in data set [6] (5 μM, no UVB, 24 hours). Moreover, the viability at 24 h, 10 µM was 3 ± 0.9% in data set [6] (10 μM + UVB 200 J/m^2, 24 hours); 71 ± 7.6% in [6] (10 μM, no UVB, 24 hours); 86 ± 10.1% in data set [10]. Also, in data set [7], the IC50 (as a rule, the concentration that inhibits the measured activity by half) at 24 h is about 75 µM. Further, the “concentration showing a suppressive effect on Th1 cells activation” value in data set [8] was found to be 50 µM. The “suppressive effect on Th1 cells activation against allogenic cells” value in data set [9] (50 μM) is reported as “suppress completely”. Moreover, the “concentration showing a suppressive effect on Th1 cells activation against allogenic cells” value in data set [9] is 50 μM.
On to `C=C1/C(=C\C=C2/CCC[C@]3(C)[C@@H]([C@H](C)/C=C/[C@@H](O)C4CC4)CC[C@@H]23)C[C@@H](O)C[C@@H]1O` [calcipotriol, reference compound], for which the viability at 24 h, 1 µM in [11] stood at 77 ± 5%. For the same compound, the toxicity in [12] is on record as 23%.
